Results reported in patent US7115632B1, “Sulfonyl aryl or heteroaryl hydroxamic acid compounds” (priority 1999, dated 2006).
Where a name gives a salt, the structure may show the parent alone.

Experiments:
Assay in all cases: In vitro metalloprotease inhibition, fluorogenic MCA peptide substrate
Format in all cases: biochemical
MMP-9 = molecular target: T1, MMP-9 (Homo sapiens, UniProt P14780); settings: Inhibition Table B
T1 construct: made in house; host or cells: transfected HT-1080 cells (provided by Dr. Harold Welgus)
T1 sequence (P14780 107-707 limits assumed): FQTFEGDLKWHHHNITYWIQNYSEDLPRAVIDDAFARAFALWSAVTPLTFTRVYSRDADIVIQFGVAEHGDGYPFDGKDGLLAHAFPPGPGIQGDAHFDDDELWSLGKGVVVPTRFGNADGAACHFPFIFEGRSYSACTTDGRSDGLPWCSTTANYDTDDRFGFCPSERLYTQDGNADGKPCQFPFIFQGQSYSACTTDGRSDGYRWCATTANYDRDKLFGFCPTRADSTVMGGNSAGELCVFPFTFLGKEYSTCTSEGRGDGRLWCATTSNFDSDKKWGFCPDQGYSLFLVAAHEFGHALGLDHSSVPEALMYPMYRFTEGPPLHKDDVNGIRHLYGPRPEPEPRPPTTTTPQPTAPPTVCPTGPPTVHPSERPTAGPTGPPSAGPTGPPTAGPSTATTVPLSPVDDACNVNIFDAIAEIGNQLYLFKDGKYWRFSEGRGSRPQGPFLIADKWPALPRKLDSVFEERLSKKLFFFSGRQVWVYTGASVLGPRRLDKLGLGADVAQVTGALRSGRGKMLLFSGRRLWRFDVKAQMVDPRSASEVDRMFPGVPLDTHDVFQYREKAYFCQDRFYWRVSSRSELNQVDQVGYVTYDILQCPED
Protocol: (§1) Briefly, 4-aminophenylmercuric acetate (APMA) or trypsin-activated MMPs were incubated with various concentrations of the inhibitor compound at room temperature for 5 minutes.
MMP-1 expressed in transfected HT-1080 cells was provided by Dr. Harold Welgus of Washington University, St. Louis, Mo. The enzyme was also activated using APMA and was then purified over a hydroxamic acid column. Dr. Welgus also provided transfected HT-1080 cells that expressed MMP-9. Transfected cells that expressed MMP-2 were provided by Dr. Gregory Goldberg, also of Washington University. Further specifics for preparation and use of these enzymes can be found in the scientific literature describing these enzymes. See, for example, Enzyme Nomenclature, Academic Press, San Diego, Calif. (1992) and the citations therein, and Frije et al., J. Biol. Chem., 26(24): 16766–16773 (1994).
(§2) MCA-ProLeuGlyLeuDpaAlaArgNH2, wherein MCA is methoxycoumarin and Dpa is 3-(2,4-dinitrophenyl)-L-2,3-diaminopropionyl alanine.
(§3) The buffer used for assays contained 100 mM Tris-HCl, 100 mM NaCl, 10 mM CaCl2 and 0.05 percent polyethyleneglycol (23) lauryl ether at a pH value of 7.5.
(§4) The ID50 values were calculated from those values.

MMP-2 = molecular target: T2, MMP-2 (Homo sapiens, UniProt P08253)
T2 construct: made in house; provided by Dr. Gregory Goldberg, Washington University
T2 sequence (P08253 110-660): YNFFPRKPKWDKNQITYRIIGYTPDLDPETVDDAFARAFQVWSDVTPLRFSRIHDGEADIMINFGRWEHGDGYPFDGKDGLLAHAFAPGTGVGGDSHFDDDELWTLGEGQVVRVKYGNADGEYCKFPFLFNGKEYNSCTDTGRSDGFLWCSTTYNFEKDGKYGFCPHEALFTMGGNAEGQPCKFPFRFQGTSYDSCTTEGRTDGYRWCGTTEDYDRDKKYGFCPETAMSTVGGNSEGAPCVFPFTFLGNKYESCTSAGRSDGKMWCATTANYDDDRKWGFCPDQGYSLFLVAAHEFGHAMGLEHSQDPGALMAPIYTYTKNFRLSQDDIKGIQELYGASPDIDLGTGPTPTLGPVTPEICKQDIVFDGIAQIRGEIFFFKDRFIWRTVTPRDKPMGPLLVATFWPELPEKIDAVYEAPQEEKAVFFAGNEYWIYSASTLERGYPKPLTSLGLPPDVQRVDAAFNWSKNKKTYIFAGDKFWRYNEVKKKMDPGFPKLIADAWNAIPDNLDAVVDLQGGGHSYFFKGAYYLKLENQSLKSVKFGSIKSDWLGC
From the text: (§5) The expressed enzyme was purified first over a heparin agarose column and then over a chelating zinc chloride column. The proenzyme was activated by APMA for use in the assay.

MMP-13 = molecular target: T3, MMP-13 (Homo sapiens, UniProt P45452)
T3 construct: made in house; host or cells: insect cells, baculovirus expression
From the text: as §5

MT1-MMP = MT1-MMP (Homo sapiens, UniProt P50281); settings: Inhibition Table B
Protocol: as §1, §2, §3, §4

MMP-8 = MMP-8 (Homo sapiens, UniProt P22894); settings: Inhibition Table B
Sequence of MMP-8 (P22894 101-467, species assumed): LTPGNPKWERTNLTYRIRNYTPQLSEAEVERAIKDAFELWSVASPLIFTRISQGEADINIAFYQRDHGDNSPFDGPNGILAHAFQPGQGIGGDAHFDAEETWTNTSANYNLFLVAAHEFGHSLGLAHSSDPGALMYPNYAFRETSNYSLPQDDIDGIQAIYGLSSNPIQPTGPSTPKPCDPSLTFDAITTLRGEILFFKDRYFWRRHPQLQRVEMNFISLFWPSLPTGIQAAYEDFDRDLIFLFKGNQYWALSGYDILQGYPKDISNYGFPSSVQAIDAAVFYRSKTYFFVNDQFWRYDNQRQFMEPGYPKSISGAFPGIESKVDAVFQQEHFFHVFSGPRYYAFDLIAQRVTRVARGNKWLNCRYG
Protocol: as §1, §2, §3, §4

MMP-1 = molecular target: T4, MMP-1 (Homo sapiens, UniProt P03956)
T4 construct: made in house; host or cells: transfected HT-1080 cells (provided by Dr. Harold Welgus, Washington University)
T4 sequence (P03956 100-469): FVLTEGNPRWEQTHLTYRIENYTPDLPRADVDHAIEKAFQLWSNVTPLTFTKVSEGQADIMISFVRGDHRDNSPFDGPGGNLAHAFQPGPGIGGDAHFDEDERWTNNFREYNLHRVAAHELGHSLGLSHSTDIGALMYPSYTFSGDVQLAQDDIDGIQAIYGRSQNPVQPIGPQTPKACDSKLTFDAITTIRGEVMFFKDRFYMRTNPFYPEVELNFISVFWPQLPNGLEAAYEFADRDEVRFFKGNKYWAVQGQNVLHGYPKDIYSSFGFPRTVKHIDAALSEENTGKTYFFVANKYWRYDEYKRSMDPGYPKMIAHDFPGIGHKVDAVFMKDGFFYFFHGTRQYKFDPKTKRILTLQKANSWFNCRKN
From the text: as §5

MMP-3 = MMP-3 (Homo sapiens, UniProt P08254); settings: Inhibition Table B
Sequence of MMP-3 (P08254 100-477, species assumed): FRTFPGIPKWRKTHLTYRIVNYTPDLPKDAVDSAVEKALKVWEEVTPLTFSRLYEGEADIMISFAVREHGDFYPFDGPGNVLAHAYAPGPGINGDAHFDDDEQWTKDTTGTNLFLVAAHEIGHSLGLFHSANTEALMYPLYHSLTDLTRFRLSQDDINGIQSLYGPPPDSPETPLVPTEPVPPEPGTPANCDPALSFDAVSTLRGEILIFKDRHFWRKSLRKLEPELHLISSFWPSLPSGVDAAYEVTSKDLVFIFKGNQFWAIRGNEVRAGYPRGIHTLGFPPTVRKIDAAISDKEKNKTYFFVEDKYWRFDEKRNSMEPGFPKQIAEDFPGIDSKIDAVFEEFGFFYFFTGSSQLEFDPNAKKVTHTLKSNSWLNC

SMILES	IC50 (MMP-9) [nM]	IC50 (MMP-2; Inhibition Table B) [nM]	IC50 (MMP-13; Inhibition Table B) [nM]	IC50 (MT1-MMP) [nM]	IC50 (MMP-8) [nM]	IC50 (MMP-1; Inhibition Table B) [nM]	IC50 (MMP-3) [nM]	IC50 (MMP-2; Inhibition Table A) [nM]	IC50 (MMP-13; Inhibition Table A) [nM]	IC50 (MMP-1; Inhibition Table A) [nM]
COc1ccc(S(=O)(=O)N2CCN(c3ccc(C(F)(F)F)cc3)CC2)c(C(=O)NO)c1OC [Example 26, N-Hydroxy-2,3-dimethoxy-6-[[4-[4-(trifluoromethyl)phenyl]-1-piperazinyl]sulfonyl]benzamide]	970	6.5	40	1920	37.2	> 10000	1750	–	–	–
COc1ccc(N2CCN(S(=O)(=O)c3ccc(OC)c(OC)c3C(=O)NO)CC2)cc1 [Example 41, N-Hydroxy-2,3-dimethoxy-6-[[4-(4-methoxyphenyl)-1-piperazinyl]sulfonyl]benzamide, monohydrochloride]	470	6	100	4000	120	> 10000	8000	–	–	–
COc1ccc(S(=O)(=O)N2CCC(Oc3ccccc3)CC2)c(C(=O)NO)c1OC [Example 47, N-Hydroxy-2,3-dimethoxy-6-[(4-phenoxy-1-piperidinyl)sulfonyl]benzamide]	–	1.1	6.7	–	–	> 10000	–	–	–	–
COc1ccc(S(=O)(=O)N2CCN(Cc3ccccc3)CC2)c(C(=O)NO)c1OC [Example 52, N-Hydroxy-2,3-dimethoxy-6-[[4-(phenylmethyl)-1-piperazinyl]sulfonyl]benzamide, monohydrochloride]	–	1500	4000	–	> 10000	–	–	–	–	–
COc1ccc(OC2CCN(S(=O)(=O)c3ccc(OC)c(OC)c3C(=O)NO)CC2)cc1 [Example 45]	3	1.8	13.9	300	11.4	> 10000	900	–	–	–
COc1ccc(C(C)C)cc1-c1ccc(OC2CCN(S(=O)(=O)c3ccc(OC)c(OC)c3C(=O)NO)CC2)cc1 [Example 39]	–	120	100	–	400	–	–	–	–	–
COc1ccc(OC)c(S(=O)(=O)N2CCC(Oc3ccc(C(F)(F)F)cc3)CC2)c1C(=O)NO [Example 35]	–	21	110	–	–	> 10000	–	–	–	–
O=C(NO)c1c(S(=O)(=O)N2CCC(Oc3ccc(C(F)(F)F)cc3)CC2)ccc2c1OCCO2 [Example 31]	–	1.4	7.7	–	–	> 10000	–	–	–	–
CCOc1ccccc1-c1ccc(OC2CCN(S(=O)(=O)c3ccc(OC)c(OC)c3C(=O)NO)CC2)cc1 [Example 40]	–	80	50	–	4400	–	–	–	–	–
COc1ccc(S(=O)(=O)N2CCC(Oc3ccc(OC(F)(F)F)cc3)CC2)c(C(=O)NO)c1OC [Example 33]	1.5	0.9	5	360	–	> 10000	100	–	–	–
O=C(NO)c1c(Cl)cccc1S(=O)(=O)N1CCC(Oc2ccc(C(F)(F)F)cc2)CC1 [Example 20, 2-Chloro-N-hydroxy-6-[[4-[4-(trifluoromethyl)phenoxy]-1-piperidinyl]sulfonyl]benzamide]	–	–	–	–	–	–	–	1.8	14.8	> 10000
COc1ccc(S(=O)(=O)N2CCC(Oc3ccc4c(c3)OCO4)CC2)c(C(=O)NO)c1OC [Example 50, 6-[[4-(1,3-Benzodioxole-5-yloxy)-1-piperinyl]sulfonyl]-N-hydroxy-2,3-dimethoxybenzamide]	9	1.1	18.6	270	12.2	> 10000	1300	–	–	–
COc1ccc(S(=O)(=O)N2CCC(Oc3ccc(Cl)cc3)CC2)c(C(=O)NO)c1OC [Example 46, 6-[[4-(4-Chlorophenoxy)-1-piperidinyl]sulfonyl]-N-hydroxy-2,3-dimethoxybenzamide]	–	0.3	1.5	–	–	> 10000	–	–	–	–
COc1ccc(S(=O)(=O)N2CCC(Oc3ccc(-c4ccccc4)cc3)CC2)c(C(=O)NO)c1OC [Example 28]	–	0.4	1.8	–	–	> 10000	–	–	–	–
COc1ccccc1-c1ccc(OC2CCN(S(=O)(=O)c3ccc(OC)c(OC)c3C(=O)NO)CC2)cc1 [Example 22]	300	15.5	5.5	2500	800	–	170	–	–	–
COc1ccc(S(=O)(=O)N2CCC(Oc3ccc(-c4ccccc4C(F)(F)F)cc3)CC2)c(C(=O)NO)c1OC [Example 38, N-Hydroxy-2,3-dimethoxy-6-[[4-[[2′-(trifluoromethyl)[1,1′-biphenyl]-4-yl]oxy]-1-piperidinyl]sulfonyl]benzamide]	–	20	82	–	1700	–	–	–	–	–
O=C(NO)c1c(OC2CCOCC2)cccc1S(=O)(=O)N1CCC(Oc2ccc(C(F)(F)F)cc2)CC1 [Example 48]	–	1	2.2	–	–	> 10000	–	–	–	–
O=C(NO)c1ccccc1S(=O)(=O)N1CCC(n2c(=O)[nH]c3ccccc32)CC1 [Example 29, 2-[[4-(2,3-Dihydro-2-oxo-1H-benzimidazol-1-yl)-1-piperidinyl]sulfonyl]-N-hydroxybenzamide]	–	370	2000	–	–	> 10000	–	–	–	–
COc1ccccc1OC1CCN(S(=O)(=O)c2ccc(OC)c(OC)c2C(=O)NO)CC1 [Example 34, N-Hydroxy-2,3-dimethoxy-6-[[4-(2-methoxyphenoxy)-1-piperidinyl]sulfonyl]benzamide]	–	330	2500	–	–	> 10000	–	–	–	–
COc1ccc(S(=O)(=O)N2CCN(Cc3ccc(OC(F)(F)F)cc3)CC2)c(C(=O)NO)c1OC [Example 53, N-Hydroxy-2,3-dimethoxy-6-[[4-[[4-(trifluoromethoxy)phenyl]methyl]-1-piperazinyl]sulfonyl]benzamide, monohydrochloride]	–	240	1900	–	–	> 10000	–	–	–	–
COc1cccc(OC2CCN(S(=O)(=O)c3ccc(OC)c(OC)c3C(=O)NO)CC2)c1 [Example 57]	–	12.1	250	–	–	> 10000	–	–	–	–
O=C(Cc1ccccc1S(=O)(=O)c1ccc(Oc2ccccc2)cc1)NO [Example 2, N-hydroxy-2-[(4-phenoxyphenyl)sulfonyl]benzeneacetamide]	–	–	–	–	–	–	–	0.3	2	900
O=C(NO)c1c(S(=O)(=O)N2CCC(Oc3ccc4c(c3)OCO4)CC2)ccc2c1OCO2 [Example 49, 5-[[4-((1,3-Benzodioxol]-5-yloxy)-1-piperidinyl]sulfonyl]-N-hydroxy-1,3-benzodioxole-4-carboxamide]	–	1.1	19	–	–	> 10000	–	–	–	–
O=C(NO)c1ccccc1S(=O)(=O)N1CCC(Oc2ccncc2)CC1 [Example 21, N-Hydroxy-2-[[4-(4-pyridinyloxy)-1-piperidinyl]sulfonyl]benzamide]	–	–	–	–	–	–	–	5.9	63	> 10000
CCCCOC1CCN(S(=O)(=O)c2ccc3c(c2C(=O)NO)OCO3)CC1 [Example 43, 5-[(4-Butoxy-1-piperidinyl)sulfonyl]-N-hydroxy-1,3-benzodioxole-4-carboxamide]	–	200	3700	–	–	> 10000	–	–	–	–
